Consider six compounds from patent US6114127A, “Methods of screening for agonists and antagonists of the HDPXU17 receptor” (SmithKline Beecham Corporation, priority 1998, dated 2000).

As a reminder, the EC50 is the concentration needed to bring the measured effect to its halfway point.

Test [1] has as its target T1, HDPXU17 receptor (P2Y-like receptor) (Homo sapiens, UniProt Q96G91).
T1 construct: expressed in transfected cells; host or cells: HEK 293 cells stably expressing the MREIIVIPII luciferase reporter gene, transiently transfected with pCDN-HDPXU17 DNA (Lipofectamine)
T1 sequence (Q96G91 1-374): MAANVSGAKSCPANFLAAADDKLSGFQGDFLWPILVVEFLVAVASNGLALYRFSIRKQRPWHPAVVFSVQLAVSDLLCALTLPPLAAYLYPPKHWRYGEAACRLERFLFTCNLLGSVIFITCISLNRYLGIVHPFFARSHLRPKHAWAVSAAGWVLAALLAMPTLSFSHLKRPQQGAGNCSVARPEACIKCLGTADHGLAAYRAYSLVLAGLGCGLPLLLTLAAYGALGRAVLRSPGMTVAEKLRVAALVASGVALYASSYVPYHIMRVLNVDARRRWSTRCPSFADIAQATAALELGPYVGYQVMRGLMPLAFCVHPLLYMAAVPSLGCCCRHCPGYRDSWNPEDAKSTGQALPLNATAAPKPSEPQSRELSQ
Put plainly: Gs reporter gene luciferase assay, HEK 293 cells stably expressing the luciferase reporter, transfected with HDPXU17 DNA. The test is classed as cell-based. To be noted: for luciferase activity: concentration ranges from 3-300,000 nM, HDPXU17-transfected HEK 293 reporter cells, result in words; for EC50: luciferase activity, HEK 293 MREIIVIPII reporter cells transfected with HDPXU17, 3-300,000 nM. An excerpt: (§1) The Gs reporter gene luciferase assay for orphan G-protein coupled receptors has been developed using a recombinant construct MREIVIPII plasmid, which has been disclosed European Patent Application No. 0 863 214, published on Sep. 9, 1998. This assay utilizes a luciferase gene fused to three copies of multiple response elements (MREs), one copy of cAMP response element (CRE) and the basal promoter of the vasointestinal peptide (VIP) gene to specifically monitor protein kinase A activation that results from an increase in intracellular cAMP. The system is not sensitive to activation of protein kinase C pathways. Rather, it responds to increases in cAMP mediated by endogenous and recombinant Gs-coupled GPCR activation with up to 120-fold increases in luciferase activity.
(§2) The assay begins when HEK 293 cells stably expressing the MREIIVIPII luciferase reporter gene were seeded at 4,500,000 per flask and incubated overnight at 37° C. The next day, solutions A (4 ug of pCDN-HDPXU17DNA was added to 0.8 ml EMEM without serum) and B (23.1 ul Lipofectamine was mixed in 0.8 ml EMEM without serum) were prepared, mixed together and incubated 30 min at room temperature. During the incubation, the culture medium was aspirated from cells and replaced with 12.5 ml serum-free EMEM. Next, the DNA and Lipofectamine mixture was added to the cells and incubated at 37° C. for 6 hours. After 6 hours, 13 ml of EMEM containing 10% FBS was added to the cells and incubated overnight at 37° C. The next day, the 96-well plates were pretreated with 1× Matrixgel solution at 50 ul/well for one hour. Then, the matrixgel solution and plate cells were aspirated at 2000-4000 cells/well. After overnight incubation at 37° C., 5-20 ul /well of the test compounds were added to the 96-well plates and incubated at 37° C. After 6 hours, the medium of each well was aspirated, 25 ul of 1×PBS without calcium and magnesium was added, the plates were frozen at -70° C. Then, the plates were allowed to thaw. Luc-lite solution (25 ul/well) was added and luciferase activity was measured by TopCount HTS.
In stable HDPXU17-expressing 293 cells(clone 20#) cells transiently transfected with MREIIVIPII plasmid, similar results are obtained.

Test [2] concerns the target T1, HDPXU17 receptor (P2Y-like receptor). Put plainly: Gs reporter gene luciferase assay, stable HDPXU17-expressing 293 cells (clone 20#) transiently transfected with MREIIVIPII plasmid. The conditions noted are these: for EC50: luciferase activity, stable HDPXU17-expressing 293 cells (clone 20#) transiently transfected with MREIIVIPII plasmid. The test is classed as cell-based.
Description: as §1
as §2, with “HTS. […]” for “HTS.”

“Also recorded” adds a separate entry of the source.

For `O=c1ccn([C@@H]2O[C@H](COP(=O)(O)OP(=O)(O)OP(=O)(O)O)[C@@H](O)[C@H]2O)c(=O)[nH]1` [UTP, uridine triphosphate], the luciferase activity entry in test [1] is listed as “increase luciferase activity only in cells transfected with the HDPXU17 receptor; also recorded: specific, but weak”; in test [2] (stable HDPXU17-expressing 293 cells (clone 20#), result in words), “still weak, but specific”.
For the compound `Nc1ncnc2c1ncn2[C@H]1C[C@H](O)[C@@H](COP(=O)(O)O)O1` [dAMP, deoxyadenosine monophosphate], the luciferase activity result in test [1] is “increase luciferase activity only in cells transfected with the HDPXU17 receptor”. The figures for the EC50 in test [1] and in test [2] were 105 µM and 200 µM, respectively.
Take `Nc1ncnc2c1ncn2[C@H]1C[C@H](O)[C@@H](COP(=O)(O)OP(=O)(O)OP(=O)(O)O)O1` [dATP, deoxyadenosine triphosphate]: the “best ligand for HDPXU 17 receptor” value in test [1] (based on results in both transient and stable HDPXU17 cells) is “appears to be the best ligand for HDPXU 17 receptor”. In addition, in test [1], the luciferase activity result was “increase luciferase activity only in cells transfected with the HDPXU17 receptor” and the EC50 was 17.3 µM. The compound also yielded an EC50 in test [2] of 4.05 µM.
As to `Nc1ccn([C@H]2C[C@H](O)[C@@H](COP(=O)(O)OP(=O)(O)OP(=O)(O)O)O2)c(=O)n1` [dCTP], the luciferase activity entry in test [1] is recorded as “no effect on luciferase activity”.
Still for that read-out and setting: to `Nc1nc2c(ncn2[C@H]2C[C@H](O)[C@@H](COP(=O)(O)OP(=O)(O)OP(=O)(O)O)O2)c(=O)[nH]1` [dGTP] belongs “no effect on luciferase activity”; to `Cc1cn([C@H]2C[C@H](O)[C@@H](COP(=O)(O)OP(=O)(O)OP(=O)(O)O)O2)c(=O)[nH]c1=O` [dTTP], “no effect on luciferase activity”.
